In PMC8224775, “Five Tetramic Acid Derivatives Isolated from the Iranian Fungus Colpoma quercinum CCTU A372” (Biomolecules, 2021):
≈ marks a conversion by molar mass, not a printed value. Marks after values point to notes of the source that are not given here. Values belong to the compound of their own block, whether it stands above or below them.

Key:
[1] = test system: Acinetobacter baumanii DSM 30008; assay: Antimicrobial serial dilution assay (MIC); format: cell-based; details: Acinetobacter baumannii, DSM30008, serial dilution 67 to 0.5 µg/mL, overnight, read-out: MIC
Description: (§1) Antimicrobial activity was determined by our established protocol, according to Becker et al.. In general, all of the pure compounds were dissolved in MeOH with a concentration of 1 mg/mL. Assessment of the antimicrobial activity was determined using the serial dilution assay method to calculate the minimum inhibitory concentration (MIC). In this method, the compounds were diluted in a range between 67 and 0.5 µg/mL in 96 well-plate and incubated with the test organism overnight. The next day, growth of the test organisms was visually observed, and MIC was determined in the lowest concentration where a clear zone (no growth of test organism) was observed. In our attempt for novel anti-infective compounds, an established standard protocol using various organisms representing a broad spectrum of pathogens of clinical interest, as well as sensitive indicator strains, was used (bacteria: Bacillus subtilis DSM 10, Staphylococcus aureus DSM 346, Acinetobacter baumanii DSM 30008, Chromobacterium violaceum DSM 30191, Escherichia coli DSM 1116 and Pseudomonas aeruginosa PA14; mycobacteria: Mycobacterium smegmatis ATCC 700084 and fungi: Candida albicans DSM 1665, Schizosaccharomyces pombe DSM 70572, Mucor hiemalis DSM 2656, Wickerhamomyces anomala DSM 6766 and Rhodotorula glutinis DSM 10134). Methanol as a solvent to dissolve the pure compounds was used as the negative control. Oxytetracycline, ciprofloxacin, gentamycin, and kanamycin were used as positive controls against bacteria, whereas nystatin was used against fungi. A detailed experimental procedure can be found in the SI.
(§2) Protocol: Antimicrobial Activity Assay
(§3) The assay was conducted as a minimum inhibitory concentration (MIC) assay in 96-well round- bottom microtiter plates using the parameters summarized in Table S1 and as already described in [S1]. Stocks of the test organisms were generated by growing the organisms overnight in 50 mL shaking flasks filled with 25 mL of the growth medium at 140r p m ( media and temperatures see Table S1). If the organisms were well grown the next day, which was checked by the occurrence of an optical density (OD) […] of the suspension (OD600 nm for bacteria, OD548 nm for fungi and M. smegmatis), aliquots of these were stored in 1.5 mL reaction tubes in a freezer at −80 °C for up to 12 months. Upon use, aliquots were unthawed and the OD of the suspension measured and adjusted by diluting with the respective growth medium. OD600 nm was adjusted to 0.01 and OD548 nm to 0.1. Subsequently, 150 μ L of the adj usted suspensions were added to all wells of a 96-well microtiter plate (one test organism per plate). In row A, additional 130 μ L of suspensions plus 20 μ L of the test compounds (1 mg/mL) and the controls (one compound/column) were added. MeOH was used as negative controls, while different positive controls (references) were used for the test organisms (see Table S1). Then, starting from row A, 150 μ L of t he suspension were transferred to the next row, the contents thoroughly mixed, and 150 μ L transferred to the following row. The remaining 150 μ L after row H were discarded. […]
(§4) of the test compounds, ranging from 66.7 μg/mL in row A to 0.52 μ g/mL in row H. The microtiter plates were then incubated overnight on a microplate shaker at 800 rpm at 30 or 37 °C (see Table S1) and were visually evaluated the next day. The MIC is defined as the lowest concentration where no growth of the test organism (clear zone) was observed. A lower MIC thus corresponds to a higher antimicrobial activity of the test compound.
(§5) Table S1: MIC assay experiment parameters test organism strain No growth incubation positive control […]
(§6) Candidaa lbicans DSM1665 MYC3 30 nystatin 1.0mg/ mL
(§7) Schizosaccharomyces DSM70572 MYC3 30 nystatin 1.0mg/ mL
(§8) Mucor hiemalis DSM2656 MYC3 30 nystatin 1.0mg/ mL
(§9) Wickerhamomyces DSM6766 MYC3 30 nystatin 1.0mg/ mL
(§10) Rhodotorula glutinis DSM10134 MYC3 30 nystatin 1.0mg/ mL
(§11) 1 MHB: Müller-Hinton Broth (SN X927.1, CarlRoth GmbH, Karlsruhe, Germany) […]

mouse fibroblast L-929 = assay: 5-day MTT cytotoxicity assay; format: cell-based; details: Mus musculus, L929, 120 h
Description: (§12) Cytotoxicity of compounds 1‒5 was initially determined against two cancer cell lines (mouse fibroblasts L-929 and human endocervical adenocarcinoma KB-3.1) by using a 5-day MTT assay according to an established procedure.
(§13) In 96-well flat-bottom microtiter plates, cell lines with serial dilution of the test compounds (final range: 37 to 0.6 × 10^−3 µg/mL) were incubated for five days. After five days, the cells were dyed using 3-(4,5-dimethyl-2-thiazolyl)-2,5-diphenyl-2H-tetrazolium bromide (MTT), which is only converted to its purple formazan derivative by living cells. The half-maximum inhibitory concentration (IC50 in µM) was calculated via the colorimetric method in a microplate reader using absorption at 595 nm. In addition, when an inhibition with an IC50 < 50 µM was observed, other cell lines were subjected to the test compounds to evaluate their further cytotoxicity: PC-3 (human prostate adenocarcinoma), SK-OV-3 (human ovary adenocarcinoma), MCF-7 (human breast adenocarcinoma), A-431 (human squamous carcinoma), and A549 (human lung carcinoma). A detailed procedure, including the colorimetric method to determine the cell viability, can be found in the SI.
(§14) Protocol: Cytotoxicity Assay
(§15) The assay was co nducted in 9 6-well flat -botto m microtiter plates using the parameters summarised in T able S2 and as described in [S2]. Cell l ines L-929 and KB-3.1 were incubated at 37 °C under 10 % CO2 in Gibco™ DMEM medium (T her mo Fisher Scientific, Waltham, M A, USA) supplemented with 10 % FBS. A microtiter plate was filled wit h 120 μ L o f this suspensio n (50,000/mL) in each well. Seperatel y, a nother microti ter plate wa s filled wit h 100 μL of gro wth medium in each well. Then, 50 μ L of the test compound solutions (1 mg/mL) were given to wells of the first column in two replicates (one compound per row). Cells without additives and MeOH were used as nega tive controls. Starting from the first column, 50 μ L of the solutions were gradually transferred to the next column, the contents thoroughly mixed, and 50 μL transferred to the following column. This created a serial dilution of the test compounds ranging from 333 μ g/mL to 1.9×10-3 μg/ mL. T he re mai ni ng 50 μ L after column twelve were discarded. From this microtiter plate, 60 μ L of the solutions fro m 111 μ g/mL to 1.9×10-3 μg/mL we r e give n to t he firs t p late co ntai ni ng 1 2 0 μ L of the cell suspensions (i.e. the highest co ncentration 333 μ g/ mL wa s no t used). T his resul ted in fi nal compo und concentratio ns rangi ng fro m 37 μ g/mL to 0.6×10-3 μg/ mL. After 5 days o f incubatio n under the aforementioned incubatio n conditions, the half maximu m inhibitory co ncentrations (IC50) were deter mined using a colorimetric tetrazolium d ye MT T assa y [S3]. For this, 20 μ L of a 5 mg/mL solution of 3-(4,5-dimethyl-2 -thiazolyl) -2,5-diphenyl-2H-tetrazolium br omide (MTT) were added to each well and incubated for two hours at 37 °C. T hen, the microtiter plate was ce ntrifuged (3,000 rpm, 5 min) and the supernatant removed by holding the plate upside-down and gentle shaking. Afterwards, the wells were washed using 100 μ L of phosphate buffered saline (PBS). T he plate was a gain ce ntrifuged a nd the supernata nt re mo ved as described before.
(§16) T hen, 1 0 0 μ L of an isopropanol:HCl solution (1L isopropanol+4 mL HCl 37 % w/v) were added to the wells. After incubating for 10 min at ambient temperature, the absorption of the wells at 595 nm was measured with an Infinite® 200 Pro microplate reader (TECAN, Männedorf, Schweiz). The absorption values of the cells without additives were averaged and set to 100 % cell viability. Then, the means of absorption of the two compound replicates were set in relation to the blank media. T hese percentage values were plotted against the concentratio n range (37 μ g/mL to 0.6×10−3 μg/ mL). T he IC50 value was r ead fro m the plot (in μ g/ mL) a nd the uni ts conversed […]
to μM. […]

[2] = test system: human breast adenocarcinoma MCF-7; assay: 5-day MTT cytotoxicity assay; format: cell-based; details: Homo sapiens, MCF7, 120 h
Description: as §12, §13, §14, §15, §16
to μM. […]

[3] = test system: human prostate cancer PC-3; assay: 5-day MTT cytotoxicity assay; format: cell-based; details: 120 h
Description: as §12, §13, §14, §15, §16
to μM. […]

[4] = test system: human lung carcinoma A-549; assay: 5-day MTT cytotoxicity assay; format: cell-based; details: A549, 120 h
Description: as §12, §13, §14, §15, §16
to μM. […]

[5] = test system: endocervical adenocarcinoma KB-3.1; assay: 5-day MTT cytotoxicity assay; format: cell-based, human; details: Homo sapiens, KB 3-1, 120 h
Description: as §12, §13, §14, §15, §16
to μM. […]

[6] = test system: squamous cell carcinoma A-431; assay: 5-day MTT cytotoxicity assay; format: cell-based, human; details: Homo sapiens, A-431, 120 h
Description: as §12, §13, §14, §15, §16
to μM. […]

[7] = test system: ovarian carcinoma SK-OV-3; assay: 5-day MTT cytotoxicity assay; format: cell-based, human; details: Homo sapiens, SK-OV-3, 120 h
Description: as §12, §13, §14, §15, §16
to μM. […]

Bacillus subtilis DSM 10 = assay: Antimicrobial serial dilution assay (MIC); format: cell-based; details: DSM10, serial dilution 67 to 0.5 µg/mL, overnight, read-out: MIC
Description: as §1, §2, §3, §4
Table S1: MIC assay experiment parameters test organism strain No growth incubation positive control
Bacillus subtilis DSM10 MHB1 30 oxytetracyclin 1.0mg/ mL […]
as §6, §7, §8, §9
(§17) Rhodotorula glutinis DSM10134 MYC3 30 nystatin 1.0mg/ mL […]

Escherichia coli = assay: Antimicrobial serial dilution assay (MIC); format: cell-based; details: serial dilution 67 to 0.5 µg/mL, overnight, read-out: MIC
Description: as §1, §2, §3, §4, §5
Escherichia coli DSM1116 MHB1 37 oxytetracyclin 1.0mg/ mL […]
as §6, §7, §8, §9, §17

[8] = test system: Staphylococcus aureus DSM 346; assay: Antimicrobial serial dilution assay (MIC); format: cell-based; details: DSM346, serial dilution 67 to 0.5 µg/mL, overnight, read-out: MIC
Description: as §1, §2, §3
as §4, with “A lower MIC thus corresponds to a higher antimicrobial activity of the test compound.” left out

Pichia anomala DSM 6766 = assay: Antimicrobial serial dilution assay (MIC); format: cell-based; details: serial dilution 67 to 0.5 µg/mL, overnight
Description: as §1, §2, §3, §4, §5, §6, §7, §8, §9, §10, §11

Mucor hiemalis DSM 2656 = assay: Antimicrobial serial dilution assay (MIC); format: cell-based; details: serial dilution 67 to 0.5 µg/mL, overnight
Description: as §1, §2, §3, §4, §5, §6, §7, §8, §9, §10, §11

[9] = test system: Rhodotorula glutinis DSM 10134; assay: Antimicrobial serial dilution assay (MIC); format: cell-based; details: serial dilution 67 to 0.5 µg/mL, overnight
Description: as §1, §2, §3, §4, §5, §6, §7, §8, §9, §10, §11

MIC [1]: 0.26 µg/mL (≈ 0.785 µM)
Structure (SMILES): O=C(O)c1cn(C2CC2)c2cc(N3CCNCC3)c(F)cc2c1=O [ciprofloxacin, reference compound]

Structure (SMILES): C/C(=C\c1csc(C)n1)[C@@H]1C[C@@H]2O[C@]2(C)CCC[C@H](C)[C@H](O)[C@@H](C)C(=O)C(C)(C)[C@@H](O)CC(=O)O1 [epothilone B, reference compound]
IC50 (mouse fibroblast L-929): 830 pM
IC50 [2]: 71 pM
IC50 [3]: 270 pM
IC50 [4]: 55 pM
IC50 [5]: 53 pM
IC50 [6]: 83 pM
IC50 [7]: 240 pM

MIC (Bacillus subtilis DSM 10): 8.3 µg/mL (≈ 18 µM)
MIC (Escherichia coli): 1.7 µg/mL (≈ 3.69 µM)
MIC [8]: 1.7 µg/mL (≈ 3.69 µM)
Structure (SMILES): CN(C)[C@@H]1C(O)=C(C(N)=O)C(=O)[C@@]2(O)C(O)=C3C(=O)c4c(O)cccc4[C@@](C)(O)[C@H]3[C@H](O)[C@@H]12 [oxytetracycline, reference compound]

Structure (SMILES): C[C@@H]1[C@H](O)[C@@H](C)/C=C/C=C/CC/C=C/C=C/C=C/C=C/C(O[C@H]2O[C@H](C)[C@@H](O)[C@H](N)[C@@H]2O)CC2O[C@](O)(CC(O)C(O)CCC(O)CC(O)CC(O)CC(=O)O[C@H]1C)CC(O)C2C(=O)O (some centres unmarked) [nystatin, reference compound]
MIC (Pichia anomala DSM 6766): 4.2 ^b µg/mL
MIC (Mucor hiemalis DSM 2656): 4.2 ^b µg/mL
MIC [9]: 1.0 ^b µg/mL
